From patent US8124774B2, “Therapeutic ((phenyl)imidazolyl)methylquinolinyl compounds” (Allergan, Inc., priority 2007, dated 2012)

Columns and labels:
Type in all cases: cell-based
alpha2B receptor = target: T1, alpha2B receptor (Homo sapiens, UniProt P18089); experiment: RSAT assay (Receptor Selection and Amplification Technology), alpha2B; conditions: for EC50: NIH-3T3 cells cotransfected with receptor and Gq/i5, read-out: Alpha 2B potency EC50; for Alpha 2B intrinsic activity (efficacy): value in parentheses, ratio of maximal effect to that of standard full agonist brimonidine (UK14304)
T1 construct: expressed in transfected cells; host or cells: NIH-3T3
T1 sequence (P18089 1-450): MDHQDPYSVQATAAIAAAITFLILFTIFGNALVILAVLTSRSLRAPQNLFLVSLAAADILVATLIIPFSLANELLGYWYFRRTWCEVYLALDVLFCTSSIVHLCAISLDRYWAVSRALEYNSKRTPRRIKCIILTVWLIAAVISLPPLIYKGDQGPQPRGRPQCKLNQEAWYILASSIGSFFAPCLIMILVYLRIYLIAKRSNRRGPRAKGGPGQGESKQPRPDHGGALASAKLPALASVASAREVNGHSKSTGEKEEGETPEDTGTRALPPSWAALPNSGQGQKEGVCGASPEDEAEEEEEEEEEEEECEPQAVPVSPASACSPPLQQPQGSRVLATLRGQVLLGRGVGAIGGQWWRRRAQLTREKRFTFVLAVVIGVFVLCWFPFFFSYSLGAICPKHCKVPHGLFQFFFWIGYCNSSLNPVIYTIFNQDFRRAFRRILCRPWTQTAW
Method: (§1) Receptor Selection and Amplification Technology (RSAT) Assay
(§2) The RSAT assay measures a receptor-mediated loss of contact inhibition that results in selective proliferation of receptor-containing cells in a mixed population of confluent cells. The increase in cell number is assessed with an appropriate transfected marker gene such as β-galactosidase, the activity of which can be easily measured in a 96-well format. Receptors that activate the G protein, Gq, elicit this response. Alpha2 receptors, which normally couple to Gi, activate the RSAT response when coexpressed with a hybrid Gq protein that has a Gi receptor recognition domain, called Gq/i5.
(§3) NIH-3T3 cells are plated at a density of 2×10^6 cells in 15 cm dishes and maintained in Dulbecco's modified Eagle's medium supplemented with 10% calf serum. One day later, cells are cotransfected by calcium phosphate precipitation with mammalian expression plasmids encoding p-SV-β-galactosidase (5-10 μg), receptor (1-2 μg) and G protein (1-2 μg). 40 μg salmon sperm DNA may also be included in the transfection mixture. Fresh media is added on the following day and 1-2 days later, cells are harvested and frozen in 50 assay aliquots. Cells are thawed and 100 μl added to 100 μl aliquots of various concentrations of drugs in triplicate in 96-well dishes. Incubations continue 72-96 hr at 37° C. After washing with phosphate-buffered saline, β-galactosidase enzyme activity is determined by adding 200 μl of the chromogenic substrate (consisting of 3.5 mM o-nitrophenyl-β-D-galactopyranoside and 0.5% nonidet P-40 in phosphate buffered saline), incubating overnight at 30° C. and measuring optical density at 420 nm. The absorbance is a measure of enzyme activity, which depends on cell number and reflects a receptor-mediated cell proliferation. The efficacy or intrinsic activity is calculated as a ratio of the maximal effect of the drug to the maximal effect of a standard full agonist for each receptor subtype. Brimonidine, also called UK14304, the chemical structure of which is shown below, is used as the standard agonist for the alpha2A, alpha2B and alpha2c receptors. The EC50 is the concentration at which the drug effect is half of its maximal effect.
(§4) EC50 values are nanomolar. ND stands for “not determinable” at concentrations less than 10 micromolar. IA stands for “intrinsic activity.”

alpha2c receptor = target: T2, alpha2c receptor (Homo sapiens, UniProt P18825); experiment: RSAT assay (Receptor Selection and Amplification Technology), alpha2C; conditions: for EC50: NIH-3T3 cells cotransfected with receptor and Gq/i5, read-out: Alpha 2C potency EC50; for Alpha 2C intrinsic activity (efficacy): value in parentheses, ratio of maximal effect to that of standard full agonist brimonidine (UK14304)
T2 construct: expressed in transfected cells; host or cells: NIH-3T3
T2 sequence (P18825 1-462): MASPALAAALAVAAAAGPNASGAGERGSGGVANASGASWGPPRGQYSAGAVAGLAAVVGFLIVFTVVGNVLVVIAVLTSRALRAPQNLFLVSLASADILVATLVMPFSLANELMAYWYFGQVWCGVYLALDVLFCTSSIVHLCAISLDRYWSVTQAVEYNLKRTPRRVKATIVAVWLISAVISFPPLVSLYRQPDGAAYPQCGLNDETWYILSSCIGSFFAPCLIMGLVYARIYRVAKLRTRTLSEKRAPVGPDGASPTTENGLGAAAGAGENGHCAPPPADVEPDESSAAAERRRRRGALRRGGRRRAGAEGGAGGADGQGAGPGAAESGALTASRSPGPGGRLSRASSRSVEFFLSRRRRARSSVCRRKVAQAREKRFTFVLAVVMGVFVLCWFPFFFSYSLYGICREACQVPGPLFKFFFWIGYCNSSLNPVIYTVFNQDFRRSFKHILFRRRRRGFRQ
Method: as §1, §2, §3, §4

alpha2A receptor = target: T3, alpha2A receptor (Homo sapiens, UniProt P08913); experiment: RSAT assay (Receptor Selection and Amplification Technology), alpha2A; conditions: value in parentheses; ratio of maximal effect to that of standard full agonist brimonidine (UK14304)
T3 construct: expressed in transfected cells; host or cells: NIH-3T3
T3 sequence (P08913 1-465): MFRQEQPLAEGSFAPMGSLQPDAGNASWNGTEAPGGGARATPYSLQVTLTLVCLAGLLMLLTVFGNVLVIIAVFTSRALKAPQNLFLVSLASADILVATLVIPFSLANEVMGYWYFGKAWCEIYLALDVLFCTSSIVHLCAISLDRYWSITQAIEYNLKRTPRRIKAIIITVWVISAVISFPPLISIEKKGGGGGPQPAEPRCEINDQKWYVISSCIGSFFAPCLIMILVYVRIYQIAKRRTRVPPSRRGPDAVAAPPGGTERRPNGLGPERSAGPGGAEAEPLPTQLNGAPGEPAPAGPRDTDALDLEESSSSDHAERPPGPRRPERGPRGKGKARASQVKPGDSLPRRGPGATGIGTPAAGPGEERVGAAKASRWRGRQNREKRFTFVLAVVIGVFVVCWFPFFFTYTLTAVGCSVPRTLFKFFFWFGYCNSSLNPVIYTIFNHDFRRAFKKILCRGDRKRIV
Method: as §1, §2
NIH-3T3 cells are plated at a density of 2×10^6 cells in 15 cm dishes and maintained in Dulbecco's modified Eagle's medium supplemented with 10% calf serum. […] After washing with phosphate-buffered saline, β-galactosidase enzyme activity is determined by adding 200 μl of the chromogenic substrate (consisting of 3.5 mM o-nitrophenyl-β-D-galactopyranoside and 0.5% nonidet P-40 in phosphate buffered saline), incubating overnight at 30° C. and measuring optical density at 420 nm. The absorbance is a measure of enzyme activity, which depends on cell number and reflects a receptor-mediated cell proliferation. […]

SMILES	EC50 (alpha2B receptor) [nM]	Alpha 2B intrinsic activity (efficacy) (alpha2B receptor)	EC50 (alpha2c receptor) [nM]	Alpha 2C intrinsic activity (efficacy) (alpha2c receptor)	Alpha 2A intrinsic activity (efficacy) (alpha2A receptor)
c1ccc(C(c2cnc[nH]2)c2cccc3ncccc23)cc1 (stereo not shown) [5-((1H-imidazol-5-yl)(phenyl)methyl)quinoline]	319	0.89	50	0.33	0.12
c1ccc(C(c2cnc[nH]2)c2cccc3cccnc23)cc1 (stereo not shown) [8-((1H-imidazol-5-yl)(phenyl)methyl)quinoline]	23	1.16	832	0.61	0.09
